Consider 15 molecules from paper PMC7198601, “Side chain effect in the modulation of αvβ3/α5β1 integrin activity via clickable isoxazoline-RGD-mimetics: development of molecular delivery systems” (Scientific Reports, 2020).

One may read the IC50 as the midpoint of a concentration-inhibition curve. Broadly, the EC50 is the concentration needed to bring the measured effect to its halfway point.

For assay [1], the target named is T1, α5β1 integrin (Homo sapiens, UniProt P05556+P08648). The arrangement: K562 cells (human erythroleukemic cells, expressing α5β1 integrin); endogenous in cells; host or cells: K-562 (ATCC), treated with PMA 40 h before the experiments. Particulars: cited from earlier work; for α5β1 behaviour (agonist/antagonist): reference compounds, entries 11-17, 41 (table footnotes b-f); for IC50: cell adhesion assay, Figure 1, ref ChemMedChem 2011, 6, 2264–2272.
T1 sequence (P08648 42-894 limits assumed): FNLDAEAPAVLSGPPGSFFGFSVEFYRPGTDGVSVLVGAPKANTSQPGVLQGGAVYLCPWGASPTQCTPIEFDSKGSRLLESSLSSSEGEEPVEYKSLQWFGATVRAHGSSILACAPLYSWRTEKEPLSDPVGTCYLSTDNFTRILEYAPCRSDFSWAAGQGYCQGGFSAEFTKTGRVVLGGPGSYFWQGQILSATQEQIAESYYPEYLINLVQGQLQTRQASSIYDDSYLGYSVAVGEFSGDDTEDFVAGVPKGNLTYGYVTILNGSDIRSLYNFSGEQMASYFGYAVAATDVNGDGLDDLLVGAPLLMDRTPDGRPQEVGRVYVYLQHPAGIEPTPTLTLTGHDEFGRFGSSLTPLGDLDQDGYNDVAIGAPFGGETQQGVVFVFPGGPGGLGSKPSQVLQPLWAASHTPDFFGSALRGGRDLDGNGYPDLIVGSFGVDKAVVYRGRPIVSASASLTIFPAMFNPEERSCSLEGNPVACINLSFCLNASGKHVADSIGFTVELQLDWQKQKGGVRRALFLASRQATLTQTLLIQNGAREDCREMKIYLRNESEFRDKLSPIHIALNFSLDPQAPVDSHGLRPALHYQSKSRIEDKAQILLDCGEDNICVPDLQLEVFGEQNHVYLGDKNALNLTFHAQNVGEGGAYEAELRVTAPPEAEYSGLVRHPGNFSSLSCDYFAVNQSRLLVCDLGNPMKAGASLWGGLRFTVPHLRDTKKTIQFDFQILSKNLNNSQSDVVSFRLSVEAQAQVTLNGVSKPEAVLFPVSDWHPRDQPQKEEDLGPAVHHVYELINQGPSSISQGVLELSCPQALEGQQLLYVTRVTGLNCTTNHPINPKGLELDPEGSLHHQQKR
T1 sequence (P08648 895-1049 partner limits assumed): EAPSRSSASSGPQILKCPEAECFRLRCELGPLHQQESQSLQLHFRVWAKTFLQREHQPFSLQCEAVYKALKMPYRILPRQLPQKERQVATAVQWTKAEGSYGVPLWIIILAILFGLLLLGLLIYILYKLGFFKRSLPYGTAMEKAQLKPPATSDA
T1 sequence (P05556 21-798): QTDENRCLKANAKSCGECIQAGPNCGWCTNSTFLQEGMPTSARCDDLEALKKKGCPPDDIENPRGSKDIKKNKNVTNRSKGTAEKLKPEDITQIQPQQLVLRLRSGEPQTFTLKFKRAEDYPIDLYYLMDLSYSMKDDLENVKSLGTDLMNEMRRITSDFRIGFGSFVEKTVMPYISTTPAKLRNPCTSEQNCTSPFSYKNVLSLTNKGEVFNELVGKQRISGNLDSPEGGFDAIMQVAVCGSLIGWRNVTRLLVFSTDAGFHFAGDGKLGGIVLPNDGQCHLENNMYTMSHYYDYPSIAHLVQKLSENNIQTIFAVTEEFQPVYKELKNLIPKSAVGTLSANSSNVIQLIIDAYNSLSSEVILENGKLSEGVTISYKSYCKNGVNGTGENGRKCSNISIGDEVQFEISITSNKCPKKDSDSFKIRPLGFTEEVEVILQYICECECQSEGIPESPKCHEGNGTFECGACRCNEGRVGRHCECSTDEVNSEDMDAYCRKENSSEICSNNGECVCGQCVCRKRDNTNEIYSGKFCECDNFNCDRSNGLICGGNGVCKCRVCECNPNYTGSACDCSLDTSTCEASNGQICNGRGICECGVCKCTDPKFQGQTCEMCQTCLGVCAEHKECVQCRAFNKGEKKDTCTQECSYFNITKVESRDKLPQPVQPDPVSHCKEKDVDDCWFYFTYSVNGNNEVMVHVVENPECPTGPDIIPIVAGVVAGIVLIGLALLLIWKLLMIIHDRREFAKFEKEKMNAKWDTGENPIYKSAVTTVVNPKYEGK

Assay [2] concerns the target T2, αvβ3 integrin (Homo sapiens, UniProt P05106+P06756). Details: SK-MEL-24 cells (human malignant melanoma cells, expressing αvβ3 integrin); endogenous in cells; host or cells: SK-MEL-24 (ATCC). Particulars: cited from earlier work; for αvβ3 behaviour (agonist/antagonist): reference compounds, entries 11-19, Dechantsreiter et al. (table footnotes b-h); for IC50: cell adhesion assay, Figure 1, ref ChemMedChem 2011, 6, 2264–2272.

Assay [3] concerns the target T2, αvβ3 integrin. As to the kind of experiment: Cell adhesion assay: SK-MEL-24 cells to immobilized fibronectin (αvβ3 integrin-mediated). Particulars: for αvβ3 behaviour (agonist/antagonist): SK-MEL-24 cell adhesion to fibronectin.
Procedure: (§1) The ability of the synthesized racemic ligands to inhibit the adhesion of K562 cells (human erythroleukemic cells, expressing α5β1 integrin) or SK-MEL-24 cells (human malignant melanoma cells, expressing αvβ3 integrin) to immobilized fibronectin was evaluated[29]. […] In these experiments, the cells were seeded onto plates coated with fibronectin and allowed to adhere before quantitation of the number of adherent cells, in presence of increasing concentrations of the compounds.
(§2) SK-MEL-24 (American Tissue Culture Collection, ATCC, Rockville, MD) were routinely grown in minimum essential medium (MEM, Cambrex, Walkersville, MD) supplemented with 10% fetal bovine serum (FBS), nonessential amino acids, and sodium pyruvate. K-562 (ATCC, Rockville, MD) were maintained as a stationary suspension culture in RPMI-1640 and L-glutamine with 10% FBS (Invitrogen (Carlsbad, CA). Cells were kept at 37 °C in a 5% CO2 humidified atmosphere. Forty hours before experiments, K-562 were treated with 25 ng/mL PMA (Sigma-Aldrich SRL, Milan, Italy) to induce differentiation and to increase expression of cell surface antigens[50].
(§3) Plates (96 wells) (Corning Costar, Celbio, Milan,Italy) were coated by passive adsorption with fibronectin (10 µg/mL) or poly-L-lysine (0.002%) (Sigma-Aldrich SRL) overnight at 4 °C. Cells were counted with a haemocytometer and pre-incubated with different concentrations of each compound or with the vehicle (methanol) for 30 min at room temperature to reach a ligand-receptor equilibrium. Stock solutions (10^–2 M) of the assayed compounds were prepared in phosphate-buffered saline (PBS). […] This product is a chromogenic substrate for β-N-acetylglucosaminidase that is transformed in 4-nitrophenol whose absorbance can be measured at 405 nm. As previously described[51], there is a linear correlation between absorbance and enzymatic activity. Therefore, it is possible to identify the number of adherent cells among treated wells, interpolating the absorbance values of unknowns in a calibration curve. The reaction was blocked by addition of 100 µL of a stopping solution [50 µM glycine and 5 µM EDTA (pH 10.4)], and the plates were read in an EnSpire Multimode Plate Reader (PerkinElmer, Waltham, MA, USA). Experiments were carried out in quadruplicate and repeated at least three times. Data analysis and IC50/EC50 values were calculated using Graph-Pad Prism 5.0 (GraphPad Software, San Diego, CA).
Assay [4] has as its target T1, α5β1 integrin. Briefly: Cell adhesion assay: K562 cells to immobilized fibronectin (α5β1 integrin-mediated). Particulars: for α5β1 behaviour (agonist/antagonist): K562 cell adhesion to fibronectin.
Procedure: as §1, §2, §3
Assay [5] addresses T1, α5β1 integrin. Briefly: α5β1 integrin internalization by confocal microscopy in HEK293 + α5-EGFP cells. The assay is classed as cell-based. Particulars: compound 1 µM, no fibronectin. The text has this:
Integrin trafficking is an important mechanism employed by cells to regulate integrin–extracellular matrix interactions, and thus cellular signalling, during processes such as cell migration and invasion. α5β1 integrin is internalized, trafficked to recycling endosomes and then recycled to the plasma membrane[43],[44]. Membrane trafficking pathways influence α5β1’s ability to promote invasion and metastasis[45],[46]. […]
HEK293 cells (not expressing α5 but endogenously expressing β1 integrin[47],[48] were plated in 6 well plates and at 50–60% confluence were transiently transfected with α5-EGFP plasmid using Lipofectamine2000 transfection reagent (LifeTechnologies). After 48 h from transfection, HEK293 + α5-EGFP cells were assessed to verify integrins expression by flow cytometry (data not shown). α5-EGFP integrin plasmid was a kind gift from Michael Davidson (Addgene plasmid #56423). HEK293 + α5-EGFP cells were treated at 4 °C with fibronectin (10 µg/ml) or the agonist 24 (1 µM) in MEM for 1 hour. Cells exposed to the antagonist 17b (1 µM), before the addition of fibronectin, were pre-incubated with the compound for 20 minutes at 4 °C. […]
Specimens were embedded in Mowiol and analyzed using a Nikon C1s confocal laser-scanning microscope, equipped with a Nikon PlanApo 60×, 1.4-NA oil immersion lens. […]

For assay [6], the system named is α5β1 integrin-mediated phosphorylation of ERK1/2. As to the kind of experiment: α5β1 integrin-mediated ERK1/2 phosphorylation in K562 cells (Western blot). The assay is classed as cell-based, human. Particulars: K562 cells not incubated with fibronectin, compound 10^−7–10^−9 M. As to the method: The mechanism by which components of extracellular matrix generate intracellular signalling through integrins requires indeed an increased phosphorylation of cytoplasmatic second messengers. Phosphorylation of ERK1/2 plays a central role in fibronectin-mediated survival signalling through integrins: in fact, cell adhesion activates ERK1/2 by binding of α5β1 integrins at the cell surface to extracellular matrix proteins such as fibronectin. The experiment was performed by serum-starving K562 cells in RPMI-1640 containing 1% FBS for 16 h; thereafter, they were preincubated with compound 17b, 24 (10^−7–10^−9 M) or the vehicle for 60 minutes and then plated for 60 minutes on fibronectin.
Figure 2 (a) Cropped blots related to the effect of compounds 17b and 24 on α5β1 integrin-mediated phosphorylation of ERK1/2 in K562 cells. Cells were serum-starved in RPMI-1640 containing 1% FBS for 16 h; then cells were preincubated with different concentrations of the antagonist 17b (10^−7–10^−9 M) or its vehicle for 1 h in suspension and then were allowed to adhere for 1 h on fibronectin (FN). […] Thereafter cells were lysed and lysates were analysed in Western blot using an antibody directed against phosphorylated ERK1/2 (pERK1/2) or total ERK1/2 (totERK1/2). […]
K562 cells were incubated in RPMI-1640 with 1% FBS for 16 h. […] Digital images were acquired and analyzed following previously reported methods.
Background: In western blotting, separated proteins are transferred to a membrane and probed.

Read-outs that look alike come from different tables or passages of the source. A value given as a limit tells only on which side of the number the result lay.

T2 sequence (P06756 31-889 limits assumed): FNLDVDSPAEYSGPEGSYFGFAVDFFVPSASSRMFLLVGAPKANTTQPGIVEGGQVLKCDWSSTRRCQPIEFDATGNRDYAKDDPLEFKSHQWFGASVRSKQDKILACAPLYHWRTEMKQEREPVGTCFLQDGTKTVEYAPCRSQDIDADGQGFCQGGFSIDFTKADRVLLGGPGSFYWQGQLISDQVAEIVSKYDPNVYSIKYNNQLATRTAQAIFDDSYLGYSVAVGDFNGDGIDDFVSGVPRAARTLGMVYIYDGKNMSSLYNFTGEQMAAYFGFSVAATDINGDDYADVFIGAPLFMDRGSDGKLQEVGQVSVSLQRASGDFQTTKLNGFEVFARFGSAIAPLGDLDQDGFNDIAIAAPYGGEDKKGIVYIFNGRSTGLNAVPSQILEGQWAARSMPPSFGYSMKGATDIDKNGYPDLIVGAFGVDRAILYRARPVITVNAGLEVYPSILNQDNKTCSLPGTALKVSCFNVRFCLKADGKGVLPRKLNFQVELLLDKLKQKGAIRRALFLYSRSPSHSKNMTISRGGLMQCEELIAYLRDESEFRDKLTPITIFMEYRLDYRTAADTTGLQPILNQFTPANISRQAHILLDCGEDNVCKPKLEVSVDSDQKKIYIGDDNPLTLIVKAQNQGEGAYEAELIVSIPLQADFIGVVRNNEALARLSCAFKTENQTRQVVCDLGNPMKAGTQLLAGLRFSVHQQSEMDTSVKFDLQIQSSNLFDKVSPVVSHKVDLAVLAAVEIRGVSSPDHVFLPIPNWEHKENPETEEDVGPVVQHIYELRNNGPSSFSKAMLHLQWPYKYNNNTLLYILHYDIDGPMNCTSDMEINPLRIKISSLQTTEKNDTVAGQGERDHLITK
T2 sequence (P06756 891-1048 partner limits assumed): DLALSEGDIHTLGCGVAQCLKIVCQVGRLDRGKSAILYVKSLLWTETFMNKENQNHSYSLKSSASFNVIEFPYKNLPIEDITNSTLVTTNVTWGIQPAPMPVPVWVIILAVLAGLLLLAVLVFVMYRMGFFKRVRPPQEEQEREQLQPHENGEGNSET
T2 sequence (P05106 27-788): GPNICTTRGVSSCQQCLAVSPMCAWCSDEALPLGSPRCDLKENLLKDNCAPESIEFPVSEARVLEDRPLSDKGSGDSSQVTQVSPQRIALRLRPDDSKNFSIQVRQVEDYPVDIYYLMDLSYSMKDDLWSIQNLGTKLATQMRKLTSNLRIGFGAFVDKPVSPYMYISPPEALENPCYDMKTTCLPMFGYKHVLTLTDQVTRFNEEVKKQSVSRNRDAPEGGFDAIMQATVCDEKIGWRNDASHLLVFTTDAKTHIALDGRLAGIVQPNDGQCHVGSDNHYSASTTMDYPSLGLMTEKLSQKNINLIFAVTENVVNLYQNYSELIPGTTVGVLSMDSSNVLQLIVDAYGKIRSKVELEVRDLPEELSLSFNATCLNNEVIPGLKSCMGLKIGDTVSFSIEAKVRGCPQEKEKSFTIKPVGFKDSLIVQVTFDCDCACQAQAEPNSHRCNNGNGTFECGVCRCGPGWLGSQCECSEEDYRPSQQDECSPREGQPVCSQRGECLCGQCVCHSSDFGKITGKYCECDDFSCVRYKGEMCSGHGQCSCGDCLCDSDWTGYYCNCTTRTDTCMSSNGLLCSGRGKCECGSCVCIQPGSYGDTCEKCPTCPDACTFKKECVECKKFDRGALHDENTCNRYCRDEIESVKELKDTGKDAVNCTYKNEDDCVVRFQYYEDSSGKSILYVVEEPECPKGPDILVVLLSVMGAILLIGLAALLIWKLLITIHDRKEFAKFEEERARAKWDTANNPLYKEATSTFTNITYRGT

On to “H-Gly-Arg-Gly-Asp-Thr-Pro-OH (H-GRGDTP-OH) [standard antagonist of cell adhesion mediated by α5β1 integrin]”, for which, in the assay with α5β1 integrin [1] (reference compound), the “α5β1 IC50/EC50 (IC50 for antagonists)” value is 0.00062 ± 0.00009 µM. The “α5β1 behaviour (agonist/antagonist)” value in the assay with α5β1 integrin [1] is on record as “antagonist”. Also, the “αvβ3 IC50/EC50 (IC50 for antagonists)” value in the assay with αvβ3 integrin [2] (reference compound) is 0.926 ± 0.006 µM. The “αvβ3 behaviour (agonist/antagonist)” value with αvβ3 integrin [2] is recorded as “antagonist”.

As to `CC1=C(C(=O)NCc2ccc(N)cc2)C(C(C)C)N(C(=O)CC(=O)O)O1` (centres unmarked) [Ref B], at α5β1 integrin [1], the IC50 was 0.00105 ± 0.0003 µM and the “α5β1 behaviour (agonist/antagonist)” value is “antagonist”. On αvβ3 integrin [2], the IC50 was 0.0088 ± 0.0006 µM and the “αvβ3 behaviour (agonist/antagonist)” value was “antagonist”. At αvβ3 integrin [2] (cell adhesion to fibronectin), the “αvβ3 IC50/EC50 (IC50 for antagonists)” value is 0.0088 ± 0.0006 µM.

`CCOC(=O)CCCCn1cc(CCCC2C(C(=O)NCc3ccc(N)cc3)=C(C)ON2C(=O)CC(=O)O)nn1` (centres unmarked) [Compound 26]: on αvβ3 integrin [3], the EC50 amounted to 0.61 ± 0.08 µM and the “αvβ3 behaviour (agonist/antagonist)” value is reported as “agonist”. Also, at α5β1 integrin [4], the IC50 was more than 1000 µM.

Regarding “Ac-Asp-Arg-Leu-Asp-Ser-OH (Ac-DRLDS-OH) [standard antagonist of cell adhesion mediated by αvβ3 integrin]”, the “α5β1 IC50/EC50” value with α5β1 integrin [1] (reference compound) is on record as more than 1000 µM. In addition, the “αvβ3 IC50/EC50 (IC50 for antagonists)” value in the assay with αvβ3 integrin [2] (reference compound) is on record as 0.025 ± 0.003 µM. Moreover, in the assay with αvβ3 integrin [2], the “αvβ3 behaviour (agonist/antagonist)” value is “antagonist”.

Consider `C#CCCCC1C(C(=O)NCc2ccc(N)cc2)=C(C)ON1C(=O)CC(=O)O` (centres unmarked) [Compound 8], for which, at αvβ3 integrin [3], a half-maximal response (EC50) required 0.83 ± 0.05 µM and the “αvβ3 behaviour (agonist/antagonist)” value is reported as “agonist”. The molecule further had an IC50 on α5β1 integrin [4] of more than 1000 µM.

With `CCC(C)C1C(C(=O)NCc2ccc(N)cc2)=C(C)ON1C(=O)CC(=O)O` (centres unmarked) [Ref C], at α5β1 integrin [1], the IC50 is 1.32 ± 0.08 µM and the “α5β1 behaviour (agonist/antagonist)” value is given as “antagonist”. For the same molecule, the “α5β1 IC50/EC50 (IC50 for antagonists)” value at α5β1 integrin [1] (cell adhesion to fibronectin) was 1.320 ± 0.080 µM. In addition, at αvβ3 integrin [2], the IC50 was 0.36 ± 0.07 µM and the “αvβ3 behaviour (agonist/antagonist)” value is given as “antagonist”. In addition, at αvβ3 integrin [2] (cell adhesion to fibronectin), the “αvβ3 IC50/EC50 (IC50 for antagonists)” value was 0.360 ± 0.070 µM.

Regarding `CC1=C(C(=O)NCc2ccc(N)cc2)C(CCCc2cn(CCC(=O)OC(C)(C)C)nn2)N(C(=O)CC(=O)O)O1` (centres unmarked) [Compound 20b], on αvβ3 integrin [3], the 50% effective concentration (EC50) was found to be 0.068 ± 0.011 µM and the “αvβ3 behaviour (agonist/antagonist)” value is recorded as “agonist”. On α5β1 integrin [4], this molecule returned an IC50 of more than 1000 µM.

`CC1=C(C(=O)NCc2ccc(N)cc2)C(CCCc2cn(CCNC(=O)OC(C)(C)C)nn2)N(C(=O)CC(=O)O)O1` (centres unmarked) [Compound 17a]: on αvβ3 integrin [3], the IC50 was 0.88 ± 0.07 µM and the “αvβ3 behaviour (agonist/antagonist)” value is on record as “antagonist”. On α5β1 integrin [4], the IC50 was determined as 0.28 ± 0.03 µM and the “α5β1 behaviour (agonist/antagonist)” value is “antagonist”.

Consider `CCOC(=O)COCCOCCn1cc(CCCC2C(C(=O)NCc3ccc(N)cc3)=C(C)ON2C(=O)CC(=O)O)nn1` (centres unmarked) [Compound 30], for which the IC50 at αvβ3 integrin [3] and against α5β1 integrin [4] was more than 1000 µM in each case.

Consider `CC1=C(C(=O)NCc2ccc(N)cc2)C(C2CCCCC2)N(C(=O)CC(=O)O)O1` (centres unmarked) [Ref D], for which, on α5β1 integrin [1], the IC50 was 1.03 ± 0.05 µM and the “α5β1 behaviour (agonist/antagonist)” value is on record as “antagonist”. Besides, the “α5β1 IC50/EC50 (IC50 for antagonists)” value at α5β1 integrin [1] (cell adhesion to fibronectin) is reported as 1.030 ± 0.050 µM. In addition, on αvβ3 integrin [2], the IC50 is 0.02 ± 0.006 µM and the “αvβ3 behaviour (agonist/antagonist)” value is on record as “antagonist”. The “αvβ3 IC50/EC50 (IC50 for antagonists)” value on αvβ3 integrin [2] (cell adhesion to fibronectin) is recorded as 0.020 ± 0.006 µM.

Consider `Cc1ccccc1NC(=O)N1C(=O)CC1CC(=O)NCC(=O)O` (centres unmarked) [Ref E, 2-(2-(4-Oxo-(o-tolylcarbamoyl)azetidin-2-yl)acetamido)acetic acid], for which the “α5β1 IC50/EC50 (EC50 for agonists)” value on α5β1 integrin [1] (cell adhesion to fibronectin) is given as 0.0129 ± 0.0006 µM. Besides, the “α5β1 behaviour (agonist/antagonist)” value at α5β1 integrin [1] is “agonist”. At αvβ3 integrin [2] (cell adhesion to fibronectin), the “αvβ3 IC50/EC50” value is reported as more than 1000 µM.

Take `CC1=C(C(=O)NCc2ccc(N)cc2)C(CCCc2cn(CCOCCOCCNC(=O)OC(C)(C)C)nn2)N(C(=O)CC(=O)O)O1` (centres unmarked) [Compound 28]: on αvβ3 integrin [3], inhibition was half-maximal at 8.84 ± 0.14 µM (IC50) and the “αvβ3 behaviour (agonist/antagonist)” value is “antagonist”. The same molecule displayed an IC50 against α5β1 integrin [4] of more than 1000 µM.

With `CC1=C(C(=O)NCc2ccc(N)cc2)C(CCCc2cn(CC(=O)OC(C)(C)C)nn2)N(C(=O)CC(=O)O)O1` (centres unmarked) [Compound 20a], at αvβ3 integrin [3], the EC50 turned out to be 0.23 ± 0.08 µM and the “αvβ3 behaviour (agonist/antagonist)” value was “agonist”. The IC50 against α5β1 integrin [4] was more than 1000 µM.

Take `CC1=C(C(=O)NCc2ccc(N)cc2)C(CCCc2cn(CCCNC(=O)CCC(=O)OC(C)(C)C)nn2)N(C(=O)CC(=O)O)O1` (centres unmarked) [Compound 24]: the IC50 on αvβ3 integrin [3] is more than 1000 µM. On α5β1 integrin [4], a half-maximal response (EC50) required 6.59 ± 0.16 µM and the “α5β1 behaviour (agonist/antagonist)” value is recorded as “agonist”. In addition, the “α5β1 integrin internalization by compound alone” value on α5β1 integrin [5] was “induced α5β1 internalization”. Besides, the ERK1/2-phosphorylation entry in assay [6] was “significant concentration dependent increase”.

Regarding `CC1=C(C(=O)NCc2ccc(N)cc2)C(C)N(C(=O)CC(=O)O)O1` (centres unmarked) [Ref A], on α5β1 integrin [1], the IC50 is 0.012 ± 0.004 µM and the “α5β1 behaviour (agonist/antagonist)” value is “antagonist”. In addition, the “α5β1 IC50/EC50 (IC50 for antagonists)” value at α5β1 integrin [1] (cell adhesion to fibronectin) is on record as 0.012 ± 0.004 µM. Besides, on αvβ3 integrin [2], the IC50 is 0.032 ± 0.003 µM and the “αvβ3 behaviour (agonist/antagonist)” value is listed as “antagonist”. Moreover, the “αvβ3 IC50/EC50 (IC50 for antagonists)” value at αvβ3 integrin [2] (cell adhesion to fibronectin) is recorded as 0.032 ± 0.003 µM.
